ChEMBL document CHEMBL5257091, “Hydrazinecarbonyl-thiazol-2-acetamides with pronounced apoptotic behavior: synthesis, in vitro/in vivo anti-proliferative activity and molecular modeling simulations” (Bioorg Med Chem Lett, 2023)

What was measured:
HeLa [1] = assay: Antiproliferative activity against human HeLa cells assessed as inhibition of cell growth incubated for 24 hrs by MTT assay; format: functional, cell-based
MCF7 [2] = assay: Antiproliferative activity against human MCF7 cells assessed as inhibition of cell growth incubated for 24 hrs by MTT assay; format: functional, cell-based; details: MCF7, 24 h
HEp-2 = assay: Antiproliferative activity against human HEp-2 cells assessed as inhibition of cell growth incubated for 24 hrs by MTT assay; format: functional, cell-based; details: HEp-2, 24 h
[3] = Toxicity in Swiss albino mouse implanted with mouse Ehrlich cells assessed as mean body weight at 10 mg/kg, iv administered once daily for 20 days (reference value: 30 g); format: organism-based; details: in vivo, 480 h, time 20 day
Ehrlich = assay: Antitumor activity against mouse Ehrlich cells implanted in Swiss albino mouse assessed as reduction in tumor volume at 10 mg/kg, iv administered once daily for 20 days relative to control; format: functional; design: scale not given: the % may be the effect or the level left; details: time 20 day
[4] = Toxicity in Swiss albino mouse implanted with mouse Ehrlich cells assessed as reduction in body weight gain at 10 mg/kg, iv administered once daily for 20 days relative to control; format: organism-based; design: scale not given: the % may be the effect or the level left; details: in vivo, 480 h, time 20 day
[5] = Cytotoxicity against human WI-38 cells assessed as inhibition of cell growth incubated for 24 hrs by MTT assay; format: toxicity, cell-based
[6] = Selectivity index, ratio of IC50 for cytotoxicity against human WI-38 cells to IC50 for antiproliferative activity against human PC-3 cells; format: toxicity, cell-based; details: WI-38 cells and PC-3 cells, read-out: Ratio IC50
[7] = Selectivity index, ratio of IC50 for cytotoxicity against human WI-38 cells to IC50 for antiproliferative activity against human HepG2 cells; format: toxicity, cell-based; details: WI-38 cells and HepG2 cells, read-out: Ratio IC50
[8] = molecular target: Epidermal growth factor receptor (Homo sapiens, UniProt P00533); assay: Inhibition of EGFR (unknown origin) by fluorimetric assay
Dihydrofolate reductase = molecular target: T1, Dihydrofolate reductase (Homo sapiens, UniProt P00374); assay: Inhibition of DHFR (unknown origin) incubated for 2 to 5 mins by absorbance based analysis
T1 sequence (P00374 whole entry): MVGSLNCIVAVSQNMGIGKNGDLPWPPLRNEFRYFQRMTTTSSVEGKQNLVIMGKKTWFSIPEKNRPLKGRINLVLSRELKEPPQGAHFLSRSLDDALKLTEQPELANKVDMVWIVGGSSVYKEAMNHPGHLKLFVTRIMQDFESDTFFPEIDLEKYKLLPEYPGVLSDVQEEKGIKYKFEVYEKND

[9] = Selectivity index, ratio of IC50 for cytotoxicity against human WI-38 cells to IC50 for antiproliferative activity against human HCT-116 cells; format: toxicity, cell-based; details: WI-38 cells and HCT-116 cells, read-out: Ratio IC50
[10] = Selectivity index, ratio of IC50 for cytotoxicity against human WI-38 cells to IC50 for antiproliferative activity against human HeLa cells; format: toxicity, cell-based; details: WI-38 cells and HeLa cells, read-out: Ratio IC50
[11] = Selectivity index, ratio of IC50 for cytotoxicity against human WI-38 cells to IC50 for antiproliferative activity against human MCF7 cells; format: toxicity, cell-based; details: WI-38 cells and MCF7 cells, read-out: Ratio IC50
[12] = Selectivity index, ratio of IC50 for cytotoxicity against human WI-38 cells to IC50 for antiproliferative activity against human HEp-2 cells; format: toxicity, cell-based; details: WI-38 cells and HEp-2 cells, read-out: Ratio IC50
HCT-116 = assay: cells; details: Homo sapiens, HCT-116, 24 h
Description: Antiproliferative activity against human HCT-116 cells assessed as inhibition of cell growth incubated for 24 hrs by MTT assay

PC-3 = assay: Antiproliferative activity against human PC-3 cells assessed as inhibition of cell growth incubated for 24 hrs by MTT assay; format: functional, cell-based; details: PC-3, 24 h
HepG2 = assay: Antiproliferative activity against human HepG2 cells assessed as inhibition of cell growth incubated for 24 hrs by MTT assay; format: functional, cell-based; details: HepG2, 24 h
MCF7 [13] = assay: Induction of apoptosis in human MCF7 cells assessed as total apoptotic cells incubated for 24 hrs by annexin V-FITC/PI staining based flow cytometry analysis (reference value: 2.11%); format: functional
MCF7 [14] = assay: Induction of cell cycle arrest in human MCF7 cells assessed as accumulation of cells at pre-G1 phase incubated for 24 hrs by PI staining based flow cytometry analysis (reference value: 2.11%); format: functional
MCF7 [15] = assay: Induction of cell cycle arrest in human MCF7 cells assessed as accumulation of cells at G0/G1 phase incubated for 24 hrs by PI staining based flow cytometry analysis (reference value: 52.61%); format: functional
HeLa [16] = assay: Induction of cell cycle arrest in human HeLa cells assessed as accumulation of cells at pre-G1 phase incubated for 24 hrs by PI staining based flow cytometry analysis (reference value: 1.85%); format: functional
HeLa [17] = assay: Induction of apoptosis in human HeLa cells assessed as early apoptotic cells incubated for 24 hrs by annexin V-FITC/PI staining based flow cytometry analysis (reference value: 0.54%); format: functional
MCF7 [18] = assay: Induction of cell cycle arrest in human MCF7 cells assessed as accumulation of cells at S phase incubated for 24 hrs by PI staining based flow cytometry analysis (reference value: 35.19%); format: functional
MCF7 [19] = assay: Induction of cell cycle arrest in human MCF7 cells assessed as cell debris incubated for 24 hrs by PI staining based flow cytometry analysis (reference value: 2.12%); format: functional
HeLa [20] = assay: Induction of apoptosis in human HeLa cells assessed as necrotic cells incubated for 24 hrs by annexin V-FITC/PI staining based flow cytometry analysis (reference value: 1.15%); format: functional
HeLa [21] = assay: Induction of apoptosis in human HeLa cells assessed as late apoptotic cells incubated for 24 hrs by annexin V-FITC/PI staining based flow cytometry analysis (reference value: 0.16%); format: functional
MCF7 [22] = assay: Induction of apoptosis in human MCF7 cells assessed as late apoptotic cells incubated for 24 hrs by annexin V-FITC/PI staining based flow cytometry analysis (reference value: 0.21%); format: functional
HeLa [23] = assay: Induction of cell cycle arrest in human HeLa cells assessed as cell aggregates incubated for 24 hrs by PI staining based flow cytometry analysis (reference value: 1.46%); format: functional
MCF7 [24] = assay: Induction of cell cycle arrest in human MCF7 cells assessed as accumulation of cells at G2/M phase incubated for 24 hrs by PI staining based flow cytometry analysis (reference value: 12.2%); format: functional
MCF7 [25] = assay: Induction of apoptosis in human MCF7 cells assessed as early apoptotic cells incubated for 24 hrs by annexin V-FITC/PI staining based flow cytometry analysis (reference value: 0.62%); format: functional
HeLa [26] = assay: Induction of cell cycle arrest in human HeLa cells assessed as cell debris incubated for 24 hrs by PI staining based flow cytometry analysis (reference value: 2.13%); format: functional
HeLa [27] = assay: Induction of cell cycle arrest in human HeLa cells assessed as accumulation of cells at G0/G1 phase incubated for 24 hrs by PI staining based flow cytometry analysis (reference value: 61.08%); format: functional
HeLa [28] = assay: Induction of apoptosis in human HeLa cells assessed as total apoptotic cells incubated for 24 hrs by annexin V-FITC/PI staining based flow cytometry analysis (reference value: 1.85%); format: functional
MCF7 [29] = assay: Induction of apoptosis in human MCF7 cells assessed as necrotic cells incubated for 24 hrs by annexin V-FITC/PI staining based flow cytometry analysis (reference value: 1.28%); format: functional
MCF7 [30] = assay: Induction of cell cycle arrest in human MCF7 cells assessed as cell aggregates incubated for 24 hrs by PI staining based flow cytometry analysis (reference value: 1.75%); format: functional
HeLa [31] = assay: Induction of cell cycle arrest in human HeLa cells assessed as accumulation of cells at S phase incubated for 24 hrs by PI staining based flow cytometry analysis (reference value: 28.54%); format: functional
HeLa [32] = assay: Induction of cell cycle arrest in human HeLa cells assessed as accumulation of cells at G2/M phase incubated for 24 hrs by PI staining based flow cytometry analysis (reference value: 10.38%); format: functional

Epidermal growth factor receptor, sequence (P00533 whole entry): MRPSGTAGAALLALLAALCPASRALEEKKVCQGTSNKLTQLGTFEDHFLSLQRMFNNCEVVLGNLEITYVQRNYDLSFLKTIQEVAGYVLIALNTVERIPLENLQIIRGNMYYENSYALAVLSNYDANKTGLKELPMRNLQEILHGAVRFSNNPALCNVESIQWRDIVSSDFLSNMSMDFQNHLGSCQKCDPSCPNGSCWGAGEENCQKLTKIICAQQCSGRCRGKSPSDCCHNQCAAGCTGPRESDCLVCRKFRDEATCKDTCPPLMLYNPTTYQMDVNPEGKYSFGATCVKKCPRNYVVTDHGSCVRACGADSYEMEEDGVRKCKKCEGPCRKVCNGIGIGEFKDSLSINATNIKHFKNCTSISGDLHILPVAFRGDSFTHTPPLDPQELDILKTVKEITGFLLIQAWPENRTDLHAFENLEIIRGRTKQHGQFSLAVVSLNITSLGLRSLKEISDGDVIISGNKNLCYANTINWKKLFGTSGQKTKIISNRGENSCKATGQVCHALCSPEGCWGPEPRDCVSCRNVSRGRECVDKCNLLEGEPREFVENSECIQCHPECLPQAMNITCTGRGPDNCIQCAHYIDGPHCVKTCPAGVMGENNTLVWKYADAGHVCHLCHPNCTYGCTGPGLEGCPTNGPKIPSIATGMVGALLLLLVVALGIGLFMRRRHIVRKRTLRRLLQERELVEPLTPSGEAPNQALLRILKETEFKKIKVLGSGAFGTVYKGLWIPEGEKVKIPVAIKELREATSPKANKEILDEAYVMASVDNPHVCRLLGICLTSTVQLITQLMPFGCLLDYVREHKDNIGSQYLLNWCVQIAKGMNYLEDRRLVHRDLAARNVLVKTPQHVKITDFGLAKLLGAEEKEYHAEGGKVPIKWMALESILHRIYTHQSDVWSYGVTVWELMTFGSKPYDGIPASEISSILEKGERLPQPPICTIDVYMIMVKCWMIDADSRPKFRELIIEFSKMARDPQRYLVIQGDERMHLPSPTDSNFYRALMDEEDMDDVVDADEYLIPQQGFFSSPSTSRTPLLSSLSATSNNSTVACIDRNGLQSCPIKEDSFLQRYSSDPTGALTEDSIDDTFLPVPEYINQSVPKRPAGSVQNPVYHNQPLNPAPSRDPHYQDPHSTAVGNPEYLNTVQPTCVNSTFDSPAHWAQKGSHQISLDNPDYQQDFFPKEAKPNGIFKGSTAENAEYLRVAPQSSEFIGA

For CC(=O)Nc1nc(C(=O)NNC(=O)CCCl)cs1, the IC50 (HeLa [1]) was 86.4 µM, the IC50 (MCF7 [2]) was 69.2 µM and the IC50 (HEp-2) was 93.2 µM.
COc1cccc2c1C(=O)c1c(O)c3c(c(O)c1C2=O)C[C@@](O)(C(=O)CO)C[C@@H]3O[C@H]1C[C@H](N)[C@H](O)[C@H](C)O1 [DOXORUBICIN] gave an Activity [3] of 27 g, an Activity (Ehrlich) of 78.9% and an Activity [4] of 25%.
Molecule CC(=O)Nc1nc(C(=O)NNC(=O)CCN2CCN(C)CC2)cs1 has an IC50 (HeLa [1]) of 7.92 µM, an IC50 at 24 h [5] of 46.9 µM and a selectivity ratio [6] of 3.27. The IC50 (MCF7 [2]) was 8.36 µM, the selectivity ratio [7] was 4.76 and the IC50 [8] was 0.131 µM. The IC50 (Dihydrofolate reductase) was 0.678 µM, the selectivity ratio [9] was 2.54 and the selectivity ratio [10] was 5.92. For the same molecule, the selectivity ratio [11] was 5.6, the selectivity ratio [12] was 4.17 and the IC50 (HCT-116) was 18.4 µM. It also gave an IC50 (HEp-2) of 11.2 µM, an IC50 (PC-3) of 14.3 µM and an IC50 (HepG2) of 9.85 µM.
CC(=O)NNC(=O)c1csc(NC(C)=O)n1 gave an IC50 (HeLa [1]) of 57.4 µM, an IC50 (MCF7 [2]) of 49.4 µM and an IC50 (HCT-116) of 69.3 µM. The IC50 (HEp-2) was 72.1 µM and the IC50 (HepG2) was 87.2 µM.
For CC(=O)Nc1nc(C(=O)NNC(=O)CN2CCCCC2)cs1, the IC50 (HeLa [1]) was 13.9 µM, the IC50 at 24 h [5] was 60.5 µM and the selectivity ratio [6] was 3.35. It also gave an IC50 (MCF7 [2]) of 16.4 µM, a selectivity ratio [7] of 4.88 and a selectivity ratio [9] of 2.47. It also gave a selectivity ratio [10] of 4.34, a selectivity ratio [11] of 3.68 and a selectivity ratio [12] of 3.07. For the same molecule, the IC50 (HCT-116) was 24.5 µM, the IC50 (HEp-2) was 19.7 µM and the IC50 (PC-3) was 18 µM. The IC50 (HepG2) was 12.4 µM.
For CC(=O)Nc1nc(C(=O)NNC(=O)CCN2CCCCC2)cs1, the Activity (MCF7 [13]) was 36.22%, the Activity (MCF7 [14]) was 36.22% and the Activity (MCF7 [15]) was 57.43%. It also gave an Activity [3] of 29.4 g, an Activity (HeLa [16]) of 45.81% and an IC50 (HeLa [1]) of 1.67 µM. The IC50 at 24 h [5] was 39.9 µM, the selectivity ratio [6] was 4.9 and the Activity (HeLa [17]) was 14.01%. The IC50 (MCF7 [2]) was 4.87 µM, the selectivity ratio [7] was 6.43 and the Activity (MCF7 [18]) was 38.66%. The Activity (MCF7 [19]) was 1.46%, the IC50 [8] was 9.2 µM and the IC50 (Dihydrofolate reductase) was 0.262 µM. The Activity (HeLa [20]) was 7.41%, the Activity (HeLa [21]) was 24.39% and the Activity (MCF7 [22]) was 22.72%. It also gave an Activity (HeLa [23]) of 1.55%, an Activity (MCF7 [24]) of 3.91% and a selectivity ratio [9] of 3.37. The selectivity ratio [10] was 23.9, the selectivity ratio [11] was 8.19 and the Activity (MCF7 [25]) was 8.31%. The Activity (Ehrlich) was 72.3%, the selectivity ratio [12] was 5.24 and the IC50 (HCT-116) was 11.8 µM. It also gave an Activity (HeLa [26]) of 2.19%, an IC50 (HEp-2) of 7.62 µM and an Activity (HeLa [27]) of 52.72%. It also gave an IC50 (PC-3) of 8.14 µM, an Activity (HeLa [28]) of 45.81% and an Activity (MCF7 [29]) of 5.19%. It also gave an IC50 (HepG2) of 6.21 µM, an Activity (MCF7 [30]) of 2.19% and an Activity [4] of 18.3%. The Activity (HeLa [31]) was 44.39% and the Activity (HeLa [32]) was 2.89%.
